# Test results as given in patent US11634396B2 (priority 2021, dated 2023).
# pEC50, pIC50: −log10 of the molar value. Where two headings read alike, the source gives them in different places.
# What was measured:
# human dOR = human dOR (Homo sapiens (Human), UniProt P41143); experiment: cell-based; conditions: dOR cAMP Agonist Assay EC50, CHO Tag-lite human dOR stable cell line; forskolin
# human mOR = human mOR (Homo sapiens (Human), UniProt P35372); experiment: cell-based
# [1] = CHO Tag-lite human mOR stable cell line, forskolin 4 μM and DAMGO at EC90, read-out: mOR cAMP Antagonist Assay IC50
# Sequence of human dOR (P41143 whole entry): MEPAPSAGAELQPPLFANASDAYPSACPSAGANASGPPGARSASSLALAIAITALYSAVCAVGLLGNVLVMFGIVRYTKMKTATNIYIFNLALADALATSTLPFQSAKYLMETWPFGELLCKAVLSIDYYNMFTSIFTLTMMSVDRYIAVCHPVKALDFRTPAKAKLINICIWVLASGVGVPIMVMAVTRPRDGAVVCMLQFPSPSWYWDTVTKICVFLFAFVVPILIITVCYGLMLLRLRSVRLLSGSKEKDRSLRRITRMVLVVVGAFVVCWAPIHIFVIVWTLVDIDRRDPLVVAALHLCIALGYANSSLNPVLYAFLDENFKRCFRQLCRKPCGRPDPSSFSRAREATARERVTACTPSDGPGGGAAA
# Sequence of human mOR (P35372 whole entry): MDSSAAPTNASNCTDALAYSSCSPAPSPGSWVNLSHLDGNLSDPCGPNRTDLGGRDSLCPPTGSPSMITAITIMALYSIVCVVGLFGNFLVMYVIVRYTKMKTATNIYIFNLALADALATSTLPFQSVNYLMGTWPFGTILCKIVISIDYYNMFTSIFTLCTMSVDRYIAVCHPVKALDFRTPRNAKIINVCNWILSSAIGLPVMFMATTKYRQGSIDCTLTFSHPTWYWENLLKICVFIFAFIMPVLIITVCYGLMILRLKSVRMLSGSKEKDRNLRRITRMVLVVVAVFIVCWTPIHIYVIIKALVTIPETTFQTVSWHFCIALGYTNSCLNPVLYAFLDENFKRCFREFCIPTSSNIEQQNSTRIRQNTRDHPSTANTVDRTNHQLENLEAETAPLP
SMILES,pEC50 (human dOR),pIC50 (human mOR),pIC50 (human mOR; [1])
"Cc1cc(C(N)=O)cc(C)c1C[C@@H](CNC(=O)C[C@H](CC(C)C)c1ccccc1)N(C)C [Compound 9, 4-[(2S)-2-(dimethylamino)-3-[(3S)-5-methyl-3-phenylhexanamido]propyl]-3,5-dimethylbenzamide]",< 5.52,> 6.52,
"Cc1cc(C(N)=O)cc(C)c1C[C@@H](CNC(=O)C[C@H](c1ccccc1)C(C)(C)C)N(C)C [Compound 13, 4-[(2S)-3-[(3S)-4,4-dimethyl-3-phenylpentanamido]-2-(dimethylamino)propyl]-3,5-dimethylbenzamide]",< 5.52,> 6.52,
"CC(C)[C@@H](CC(=O)NC[C@H](Cc1ccc(C(N)=O)cc1Cl)N(C)C)c1ccccc1 [Compound 40, 3-chloro-4-((S)-2-(dimethylamino)-3-((R)-4-methyl-3-phenylpentanamido)propyl)benzamide]",> 6.52,< 5.52,
"CC(C)[C@@H](CC(=O)NC[C@H](Cc1ccc(C(N)=O)cc1)N(C)C)c1ccccc1 [Compound 92, 4-((S)-2-(dimethylamino)-3-((R)-4-methyl-3-phenylpentanamido)propyl)benzamide]",> 6.52,> 6.52,
"CN(C)[C@H](CNC(=O)C[C@@H](c1ccccc1)C(C)(C)C)Cc1ccc(C(N)=O)cc1 [Compound 93, 4-[(2S)-3-[(3R)-4,4-dimethyl-3-phenylpentanamido]-2-(dimethylamino)propyl]benzamide]",> 6.52,> 6.52,
"CC(C)[C@H](CC(=O)NC[C@H](Cc1ccc(C(N)=O)cc1)N(C)C)c1ccccc1 [Compound 94, 4-[(2S)-2-(dimethylamino)-3-[(3S)-4-methyl-3-phenylpentanamido]propyl]benzamide]",> 6.52,> 6.52,
"CN(C)[C@H](CNC(=O)C[C@@H](c1ccccc1)C(C)(C)C)Cc1ccc(C(N)=O)cc1 [Compound 95, 4-((S)-3-((R)-4,4-dimethyl-3-phenylpentanamido)-2-(dimethylamino)propyl)benzamide]",< 5.52,,
"CN(C)[C@H](CNC(=O)C[C@H](c1ccccc1)C(C)(C)C)Cc1ccc(C(=O)NCC(F)(F)F)c(F)c1 [Compound 101, 4-((S)-3-((S)-4,4-dimethyl-3-phenylpentanamido)-2-(dimethylamino)propyl)-2-fluoro-N-(2,2,2-trifluoroethyl)benzamide]",5.52 to 6.52,,> 6.52
"CNC(=O)c1cc(F)c(C[C@@H](CNC(=O)C[C@H](c2ccccc2)C(C)(C)C)N(C)C)cc1F [Compound 104, 4-((S)-3-((S)-4,4-dimethyl-3-phenylpentanamido)-2-(dimethylamino)propyl)-2,5-difluoro-N-methylbenzamide]",5.52 to 6.52,> 6.52,
"CNC(=O)c1cc(C)c(C[C@@H](CNC(=O)C[C@@H](c2ccccc2)C(C)(C)C)N(C)C)cc1F [Compound 146, 4-((S)-3-((R)-4,4-dimethyl-3-phenylpentanamido)-2-(dimethylamino)propyl)-2-fluoro-N,5-dimethylbenzamide]",< 5.52,> 6.52,
"CNC(=O)c1ccc(C[C@@H](CNC(=O)C[C@@H](CC(C)C)c2ccccc2)N(C)C)cc1Cl [Compound 147, 2-chloro-4-((S)-2-(dimethylamino)-3-((R)-5-methyl-3-phenylhexanamido)propyl)-N-methylbenzamide]",> 6.52,> 6.52,
"CNC(=O)c1ccc(C[C@@H](CNC(=O)C[C@H](c2ccccc2)C(C)C)N(C)C)cc1Cl [Compound 148, 2-chloro-4-((S)-2-(dimethylamino)-3-((S)-4-methyl-3-phenylpentanamido)propyl)-N-methylbenzamide]",5.52 to 6.52,5.52 to 6.52,
"CNC(=O)c1ccc(C[C@@H](CNC(=O)C[C@H](c2ccccc2)C(C)(C)C)N(C)C)cc1Cl [Compound 150, 2-chloro-4-((S)-3-((S)-4,4-dimethyl-3-phenylpentanamido)-2-(dimethylamino)propyl)-N-methylbenzamide]",< 5.52,> 6.52,
"CNC(=O)c1ccc(C[C@@H](CNC(=O)C[C@@H](C)c2ccc(Cl)cc2)N(C)C)cc1F [Compound 155, 4-((S)-3-((R)-3-(4-chlorophenyl)butanamido)-2-(dimethylamino)propyl)-2-fluoro-N-methylbenzamide]",> 6.52,,> 6.52
"CN(C)[C@H](CNC(=O)C[C@H](c1cccnc1)C1CC1)Cc1ccc(O)cc1 [Compound 308, (S)-3-cyclopropyl-N-((S)-2-(dimethylamino)-3-(4-hydroxyphenyl)propyl)-3-(pyridin-3-yl)propanamide]",,,5.52 to 6.52
"CN(C)[C@H](CNC(=O)CC(c1ccncc1)C1(C(F)(F)F)CC1)Cc1ccc(O)cc1 (stereo partly drawn) [Compound 309, N-((S)-2-(dimethylamino)-3-(4-hydroxyphenyl)propyl)-3-(pyridin-4-yl)-3-(1-(trifluoromethyl)cyclopropyl)propanamide]",,> 6.52,
"CN(C)[C@H](CNC(=O)C[C@@H](CC1CC1)c1cccnc1)Cc1ccc(O)cc1 [Compound 310, (R)-4-cyclopropyl-N-((S)-2-(dimethylamino)-3-(4-hydroxyphenyl)propyl)-3-(pyridin-3-yl)butanamide]",,> 6.52,
"Cc1ncc([C@@H](CC(=O)NC[C@H](Cc2ccc(O)cc2)N(C)C)C2CC2)cn1 [Compound 311, (S)-3-cyclopropyl-N-((S)-2-(dimethylamino)-3-(4-hydroxyphenyl)propyl)-3-(2-methylpyrimidin-5-yl)propanamide]",,,5.52 to 6.52
"Cc1ncc([C@@H](CC(=O)NC[C@H](Cc2ccc(O)cc2)N(C)C)C2(C(F)(F)F)CC2)cn1 [Compound 312, (R)-N-((S)-2-(dimethylamino)-3-(4-hydroxyphenyl)propyl)-3-(2-methylpyrimidin-5-yl)-3-(1-(trifluoromethyl)cyclopropyl)propanamide]",,> 6.52,
"CN(C)[C@H](CNC(=O)CC(c1ncccn1)C1(C(F)(F)F)CC1)Cc1ccc(O)cc1 (stereo partly drawn) [Compound 313, N-((S)-2-(dimethylamino)-3-(4-hydroxyphenyl)propyl)-3-(pyrimidin-2-yl)-3-(1-(trifluoromethyl)cyclopropyl)propanamide]",,> 6.52,
"CN(C)[C@H](CNC(=O)CC(c1ccc(C(F)(F)F)nc1)C1(C(F)(F)F)CC1)Cc1ccc(O)cc1 (stereo partly drawn) [Compound 314, N-((S)-2-(dimethylamino)-3-(4-hydroxyphenyl)propyl)-3-(1-(trifluoromethyl)cyclopropyl)-3-(6-(trifluoromethyl)pyridin-3-yl)propanamide]",,> 6.52,
"Cc1cc([C@@H](CC(=O)NC[C@H](Cc2ccc(O)cc2)N(C)C)C2(C(F)(F)F)CC2)cs1 [Compound 322, (S)-N-((S)-2-(dimethylamino)-3-(4-hydroxyphenyl)propyl)-3-(5-methylthiophen-3-yl)-3-(1-(trifluoromethyl)cyclopropyl)propanamide]",,> 6.52,
"Cc1cnc([C@@H](CC(=O)NC[C@H](Cc2ccc(-c3nnc[nH]3)cc2)N(C)C)C2(C(F)(F)F)CC2)s1 [Compound 325, (S)-N-((S)-3-(4-(4H-1,2,4-triazol-3-yl)phenyl)-2-(dimethylamino)propyl)-3-(5-methylthiazol-2-yl)-3-(1-(trifluoromethyl)cyclopropyl) propanamide]",,,5.52 to 6.52
